A word on the Papp A→B: it is the apparent permeability from the apical to the basolateral side of a cell layer. Read a low Papp A→B as slow passage. As a reminder, the Papp B→A is how fast a substance crosses the layer from the basolateral side. For orientation: efflux ratio means the permeability from basolateral to apical divided by that in the opposite direction, in the common usage.

One data set in a line: in vitro. Conditions: dog, MDCK-MDR1, pH 7.4.
Data set [1] in a line: Cell accumulation and total recovery of coumarins in the bidirectional transport experiment. Conditions: dog.
Experimental: (§1) 10 mM stock solutions of test compounds were prepared in DMSO and diluted with HBSS to the desired concentrations before transport experiments. HBSS (pH 7.4) was used as a transport medium. After washing the MDCK-pHaMDR cell monolayer twice with prewarmed HBSS medium, HBSS medium was preserved to prepare samples of the calibration curves. Then the experiments were carried out by replacing the transport medium in the AP side (0.5 mL, for absorption transport) or BL side (1.5 mL, for efflux transport) with test compounds (50 µM). The plates were shaked at 55 rpm for 90 min at 37 °C in a water bath. Samples were collected from both sides of the cell monolayer, then immediately frozen, lyophilized and preserved below −20 °C. To measure the intracellular accumulation amounts of different coumarins, the cell monolayers were extracted after transport assays with 200 µL 70% MeOH (v/v) for 20 min, then centrifuged and preserved below −20 °C.
(§2) To determine the corresponding coumarins, the lyophilized permeation samples were dissolved in a suitable volume of MeOH, thoroughly vortex-mixed for 1 min and then centrifuged at 16,000× g for 20 min. An aliquot of 20 µL supernatant solution was used for HPLC assay. To measure the intracellular accumulation amount of different coumarins, the aliquots of cell extractions were determined too.
(§3) CA (Cell accumulation): the percent of the coumarins that accumulated in the cell monolayer after transport
(§4) experiment relative to the initial amount. TR (Total recovery): the percent of the total amount of the coumarins
(§5) recovered from both sides of the inserts and intracellular accumulation in MDCK-pHaMDR cell monolayer
(§6) relative to the initial amount. N.D.: not detected. The concentration of all coumarins was 50 µM.
(§7) incubation time was up to 90 min. Data are means ± S.D. (n = 6).
In data set [2] the test system is MDCK-pHaMDR cell monolayer. The conditions noted are these: dog, 90 min, 50 µM, pH 7.4.
Experimental: as §1, §2, §3, §4, §5, §6, §7
The subject of data set [3] is MDCK-pHaMDR cell monolayer. Kind of data set: Cell accumulation and total recovery of coumarins in the bidirectional transport experiment. The conditions noted are these: 50 µM, 90 min, percent of initial amount, n = 6.
Experimental: as §1, §2, §3, §4, §5, §6, §7
For data set [4], the system named is P-gp. Briefly: Rh123 intracellular accumulation in MDCK-pHaMDR cells with or without verapamil. Type of data set: cell-based. The conditions noted are these: Rh123 10 µM. The protocol: The fluorescence at 485 nm (excitation wavelength) and 538 nm (emission wavelength) was determined on a Cary Eclipse Fluorescence spectrophotometer (Varian Inc., Palo Alto, CA, USA). To investigate intracellular accumulations of Rh123 as a probe substrate for P-gp, MDCK-pHaMDR cells were seeded on the 6 Wells plates at a density of about 1.0 × 10^5 cells/mL and grew for 48 h. Before the uptake experiments, cells were washed with PBS two times and pre-incubated with serum-free DMEM or 100 µM verapamil for 20 min. Rh123 with the final concentration of 10 µM was added, and cells were incubated with or without the presence of verapamil for 60 min at 37 °C. Then cells were washed with ice-cold PBS three times, and lysed with 0.1% (v/v) Triton X-100 for 15 min at 37 °C [33]. The fluorescence of Rh123 in cell lysates was determined as described above.

Data set [5] has as its system P-gp. Kind of data set: in vitro. The conditions noted are these: dog, not told.
Experimental: The P-gp expression level in the MDCK-pHaMDR cell monolayer was examined by Rh123 transport and intracellular accumulation experiments. Rh123 (10 µM) bidirectional transports with or without the presence of verapamil (100 µM) were undertaken as described above, and the lyophilized permeation samples were dissolved in a proper volume of MeOH. The fluorescence at 485 nm (excitation wavelength) and 538 nm (emission wavelength) was determined on a Cary Eclipse Fluorescence spectrophotometer (Varian Inc., Palo Alto, CA, USA).
The test system of data set [6] is MDCK-pHaMDR cell monolayer. Kind of data set: Bidirectional transport across MDCK-pHaMDR cell monolayer (in vitro BBB model). The conditions noted are these: AP to BL; coumarins 50 µM, caffeine 10 µM, atenolol 200 µM; 90 min; mean ± S.D., n = 6.
Experimental: as §1
An Agilent 1100 series HPLC system (Agilent Technologies, Palo Alto, CA, USA) was used with an analytical Diamonsil® C18 column (250 mm × 4.6 mm, 5 µm, Dikma, Beijing, China) equipped with a C18 guard column (8 mm × 4 mm, 5 µm, Dikma). […] The flow rate was 1.0 mL/min. Elution peaks were monitored and the peak areas were used to calculate the compound concentrations.
Papp in AP-BL or BL-AP direction of each coumarin was calculated from the following equation: (2) Papp=dQ/dt·A·C0 [cm/s] where Q is the accumulation quantity of the compound in the receiver side (μmol), dQ/dt is the linear appearance rate of the compound in the receiver side (μmol/s), C0 is the initial concentration in the donor side (μM), and A is the surface area of the membrane insert (cm^2). Data were expressed as the mean ± SD.
Setting [7] is: MDCK-pHaMDR cell monolayer, pH 7.4, TR (Total recovery) AP→BL, AP→BL, 50 µM, 90 min, percent of initial amount, n = 6.
The mark [8] stands for this setting: MDCK-pHaMDR cell monolayer, pH 7.4, TR (Total recovery) BL→AP, BL→AP, 50 µM, 90 min, percent of initial amount, n = 6.

The structures appear in SMILES notation. Like-named read-outs stand apart in the source and are kept apart here.

Consider `O=c1ccc2ccc(O)cc2o1` [Compound 1, umbelliferone], for which, in the data set “in vitro”, the Papp A→B at 90 min is 35.9 ± 2.28 ×10⁻⁶ cm/s and the Papp B→A at 90 min, 50 µM came out at 32.8 ± 1.25 ×10⁻⁶ cm/s. In addition, in data set [1] (setting [7]), the recovery at 90 min, 50 µM stood at 99.3 ± 1.59%. The recovery at 90 min, 50 µM in data set [1] (setting [8]) worked out at 96.7 ± 3.22%.
Regarding `COc1ccc2ccc(=O)oc2c1CC=C(C)C` [Compound 2, osthol], in data set [2], the “CA (Cell accumulation) AP→BL” value stood at 6.96 ± 1.50% and the “CA (Cell accumulation) BL→AP” value stood at 3.51 ± 0.68%. In the data set “in vitro”, this molecule came in with a Papp A→B at 90 min of 23.8 ± 1.44 ×10⁻⁶ cm/s and a Papp B→A at 90 min, 50 µM of 20.4 ± 3.04 ×10⁻⁶ cm/s. The recovery at 90 min, 50 µM in data set [1] (setting [7]) amounted to 105 ± 5.15%. Besides, the recovery at 90 min, 50 µM in data set [1] (setting [8]) amounted to 95.6 ± 1.75%.
As for `COc1cc2ccc(=O)oc2cc1O` [Compound 3, scopoletin], in “in vitro”, the Papp A→B at 90 min amounted to 37.1 ± 1.97 ×10⁻⁶ cm/s; the Papp B→A at 90 min, 50 µM was 27.4 ± 3.51 ×10⁻⁶ cm/s; the efflux ratio at 90 min, 50 µM was determined as 0.96. Moreover, the recovery at 90 min, 50 µM in data set [1] (setting [7]) came out at 87.5 ± 3.3%. The molecule further displayed a recovery at 90 min, 50 µM in data set [1] (setting [8]) of 92.2 ± 3.16%.
In the case of `O=c1ccc2cc3ccoc3cc2o1` [Compound 7, psoralen], in the data set “in vitro”, the apical-to-basolateral permeability (Papp A→B) at 90 min came to 27.3 ± 2.35 ×10⁻⁶ cm/s; the Papp B→A at 90 min, 50 µM came to 26.8 ± 2.75 ×10⁻⁶ cm/s; the efflux ratio at 90 min, 50 µM came out at 0.98. For the same molecule, the recovery at 90 min, 50 µM in data set [1] (setting [7]) came out at 89.9 ± 6.49%. Also, the recovery at 90 min, 50 µM in data set [1] (setting [8]) is 94.7 ± 3.85%. Further, in data set [3], the “CA (Cell accumulation) AP→BL” value came to 4.63 ± 0.13% and the “CA (Cell accumulation) BL→AP” value was determined as 1.79 ± 0.03%.
Consider `COc1c2occc2cc2ccc(=O)oc12` [Compound 8, xanthotoxin], for which the recovery at 90 min, 50 µM in data set [1] (pH 7.4, TR (Total recovery) AP→BL, AP→BL, 50 µM, 90 min, percent of initial amount, n = 6) stood at 95.2 ± 4.79%; in data set [1] (pH 7.4, TR (Total recovery) BL→AP, BL→AP, 50 µM, 90 min, percent of initial amount, n = 6) it was 88.7 ± 3.13%.
As to `COc1c2ccoc2cc2oc(=O)ccc12` [Compound 9, bergapten], in “in vitro”, the Papp A→B at 90 min came to 43.6 ± 2.13 ×10⁻⁶ cm/s; the Papp B→A at 90 min, 50 µM was determined as 37.4 ± 5.81 ×10⁻⁶ cm/s; the efflux ratio at 90 min, 50 µM was 0.86. For the same molecule, in data set [1] (setting [7]), the recovery at 90 min, 50 µM worked out at 99.15 ± 0.54%. The recovery at 90 min, 50 µM in data set [1] (setting [8]) is 107 ± 1.19%.
With `CC(C)=CCOc1c2ccoc2cc2oc(=O)ccc12` [Compound 10, isoimperatorin], in “in vitro”, the Papp A→B at 90 min came to 7.29 ± 0.17 ×10⁻⁶ cm/s and the Papp B→A at 90 min, 50 µM is 3.73 ± 0.33 ×10⁻⁶ cm/s. For the same molecule, the recovery at 90 min, 50 µM in data set [1] (setting [7]) amounted to 90.2 ± 3.08%. The molecule further came in with a recovery at 90 min, 50 µM in data set [1] (setting [8]) of 86.6 ± 2.89%. In data set [3], the “CA (Cell accumulation) AP→BL” value came out at 5.38 ± 1.14% and the “CA (Cell accumulation) BL→AP” value came to 1.65 ± 0.36%.
The molecule `C/C=C(/C)C(=O)OC(C)(C)[C@@H]1Cc2c(ccc3ccc(=O)oc23)O1` [Compound 11, columbianadin] displayed a Papp A→B at 90 min in “in vitro” of 10.4 ± 0.95 ×10⁻⁶ cm/s. In the data set “in vitro”, this molecule returned a Papp B→A at 90 min, 50 µM of 7.12 ± 0.12 ×10⁻⁶ cm/s. Further, the recovery at 90 min, 50 µM was 67.6 ± 5% in data set [1] (setting [7]); 64.1 ± 3.63% in data set [1] (setting [8]); 64 to 68% in data set [1] (MDCK-pHaMDR cell monolayer, pH 7.4, recovery (both sides of the insert and intracellular), both directions). Further, in data set [3], the “CA (Cell accumulation) AP→BL” value is reported as 21.49 ± 4.56%. The “CA (Cell accumulation) BL→AP” value in data set [3] is 9.44 ± 1.01%.
With `COC(=O)c1ccccc1-c1c2ccc(=N)cc-2oc2cc(N)ccc12` [Rh123, Rhodamine 123], the “intracellular accumulation with verapamil relative to verapamil-absent group” value in the data set on P-gp [4] (100 µM verapamil) came out at 4.45 fold. Further, in the data set with P-gp [4] (60 min, without verapamil, n = 4), the “Intracellular Accumulation Fluorescence Intensity” value is 34.51 ± 1.18. Besides, in the data set with P-gp [5] (pH 7.4), the apical-to-basolateral permeability (Papp A→B) at 90 min, 10 µM was 1.18 ± 0.056 ×10⁻⁶ cm/s; the Papp B→A at 90 min, 10 µM was found to be 5.27 ± 0.209 ×10⁻⁶ cm/s; the efflux ratio at 90 min, 10 µM was determined as 4.47 ± 0.24. For the same molecule, in the data set on P-gp [5] (pH 7.4, with verapamil 100 µM), the efflux ratio at 90 min, 10 µM was found to be 1.58.
On to `Cn1c(=O)c2c(ncn2C)n(C)c1=O` [caffeine, reference compound], for which the Papp A→B at 90 min in “in vitro” is 43.6 ×10⁻⁶ cm/s. In addition, in data set [6], the “Papp AP-BL” value is reported as 43.58 ± 4.86 ×10^−6 cm/s.
